The results in this text go back to article PMC9490041, “Determinants of affinity, specificity, and phase separation in a supramodule from Post-synaptic density protein 95” (iScience, 2022).

Read-outs that look alike come from different tables or passages of the source. Ends that are not written are not given here.

Experiment in all cases: FP displacement (competition) of FITC-15 AA CRIPT by library peptide, IC50 and Ki
One experiment has as its target PDZ3 (PSD-95) (Homo sapiens, UniProt P78352).
Another experiment deals with PSG (PSD-95). The settings on record: for IC50: read-out: IC50 (µM), PSG.
Another experiment has as its target PSG G322A (PSD-95). The settings on record: for IC50: read-out: IC50 (µM), PSG G322A; for Ki: read-out: Ki (µM), PSG G322A.
The next experiment addresses PSG G335A (PSD-95). The settings on record: for IC50: read-out: IC50 (µM), PSG G335A; for Ki: read-out: Ki (µM), PSG G335A.
A further experiment has as its target PSG G322A G335A (PSD-95). The settings on record: for IC50: read-out: IC50 (µM), PSG G322A G335A.
Setting [1] is: Ki (µM), PDZ3, FP displacement of FITC-15 AA CRIPT probe by PSD library peptide, protein PDZ3.
Setting [2] is: FP displacement of FITC-15 AA CRIPT probe by PSD library peptide, protein PSG (wild type).
Setting [3] is: read-out: Ki (µM), PSG, FP displacement of FITC-15 AA CRIPT probe by PSD library peptide, protein PSG (wild type).
Where [4] appears, read: FP displacement of FITC-15 AA CRIPT probe by PSD library peptide, protein PSG G322A.
Setting [5] is: FP displacement of FITC-15 AA CRIPT probe by PSD library peptide, protein PSG G335A.
[6] abbreviates: FP displacement of FITC-15 AA CRIPT probe by PSD library peptide, protein PSG G322A G335A.
The mark [7] stands for this setting: read-out: Ki (µM), PSG G322A G335A, FP displacement of FITC-15 AA CRIPT probe by PSD library peptide, protein PSG G322A G335A.
Setting [8] is: FP displacement of FITC-15 AA CRIPT probe by library peptide.
Setting [9] is: FP displacement of FITC-15 AA CRIPT probe by acetylated PSD library peptide.
[10] abbreviates: read-out: Ki (µM), PSG, FP displacement of FITC-15 AA CRIPT probe by acetylated PSD library peptide.
Setting [11] is: FP displacement of FITC-15 AA CRIPT probe by acetylated PSD library peptide (P-13 to P0 plus extra N-terminal Y).
[12] abbreviates: read-out: Ki (µM), PSG G322A G335A, FP displacement of FITC-15 AA CRIPT probe by acetylated PSD library peptide.

Chain of PDZ3 (PSD-95) (P78352 313-393 limits assumed): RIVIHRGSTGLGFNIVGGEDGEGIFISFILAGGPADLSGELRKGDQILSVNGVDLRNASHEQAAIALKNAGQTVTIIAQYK

A word on the IC50: it is the point on the concentration scale where inhibition reaches its midpoint. One may read the Ki as the equilibrium dissociation constant of an inhibitor or competing ligand from its target. On to Ac-YDSIEIYIPEAQTRL [DLGP2], for which, on PDZ3 (PSD-95), the IC50 stood at 396 µM. At PDZ3 (PSD-95) (setting [1]), this compound displayed a Ki of 165 µM.
As for `CC(=O)N[C@@H](Cc1ccc(O)cc1)C(=O)N[C@@H](CCC(=O)O)C(=O)N[C@@H](CCC(=O)O)C(=O)N[C@@H](CCC(=O)O)C(=O)N[C@@H](CC(C)C)C(=O)N[C@@H](CCC(N)=O)C(=O)N[C@@H](CC(=O)O)C(=O)N[C@@H](CO)C(=O)N[C@@H](CCCNC(=N)N)C(=O)N[C@H](C(=O)N[C@@H](Cc1ccc(O)cc1)C(=O)N[C@H](C(=O)N[C@@H](CO)C(=O)N[C@@H](CO)C(=O)N[C@@H](CC(C)C)C(=O)O)C(C)C)C(C)C` [CAC1C], the inhibition constant Ki at PDZ3 (PSD-95) (setting [1]) worked out at 449 µM; at PSG (PSD-95) (setting [3]), 105 µM; at PSG G322A (PSD-95) (setting [4]), 43 µM; on PSG G335A (PSD-95) (setting [5]) it was 32 µM; on PSG G322A G335A (PSD-95) (setting [7]), 28 µM. Also, the concentration for half-maximal inhibition (IC50) on PSG (PSD-95) (setting [2]) amounted to 200 µM; on PSG G322A (PSD-95) (setting [4]), 99 µM; on PSG G335A (PSD-95) (setting [5]), 90 µM; at PSG G322A G335A (PSD-95) (setting [6]), 82 µM.
With Ac-YSSPAQSVTPVQTVV [MTMR2], the IC50 amounted to 333 µM on PDZ3 (PSD-95), 271 µM on PSG (PSD-95) (setting [8]), 295 µM at PSG G322A (PSD-95) (setting [8]) and 277 µM at PSG G335A (PSD-95) (setting [8]). Also, the Ki came out at 139 µM on PDZ3 (PSD-95) (Ki (µM), PDZ3, FP displacement of FITC-15 AA CRIPT probe by library peptide); 115 µM on PSG (PSD-95) (read-out: Ki (µM), PSG, FP displacement of FITC-15 AA CRIPT probe by library peptide); 99 µM at PSG G335A (PSD-95) (setting [8]); 95 µM on PSG G322A G335A (PSD-95) (FP displacement of 5 nM FITC-15 AA CRIPT by non-labeled acetylated peptide, room temperature, Ki from IC50, PSG G322A G335A).
For the compound Ac-YQARRGKKKSGSLVL [RHOA], the inhibition constant (Ki) on PDZ3 (PSD-95) (Ki (µM), PDZ3, FP displacement of FITC-15 AA CRIPT probe by acetylated PSD library peptide) was found to be 548 µM; at PSG (PSD-95) (setting [10]), 923 µM; at PSG G322A (PSD-95) (setting [9]), 362 µM; at PSG G322A G335A (PSD-95) (setting [12]) it was 457 µM. The IC50 was 2160 µM at PSG (PSD-95) (setting [9]), 834 µM at PSG G322A (PSD-95) (setting [9]) and 1320 µM at PSG G322A G335A (PSD-95) (setting [11]).
Take `CC(=O)N[C@@H](Cc1ccc(O)cc1)C(=O)N[C@@H](CC(C)C)C(=O)N1CCC[C@H]1C(=O)N[C@@H](CC(C)C)C(=O)N[C@@H](CC(=O)O)C(=O)N[C@H](C(=O)N[C@@H](CCC(N)=O)C(=O)N[C@@H](CCC(=O)O)C(=O)NCC(=O)N[C@@H](CC(=O)O)C(=O)N[C@@H](Cc1ccccc1)C(=O)N[C@@H](CCC(N)=O)C(=O)N[C@H](C(=O)N[C@@H](CCC(=O)O)C(=O)N[C@H](C(=O)O)C(C)C)[C@@H](C)O)C(C)C` [AGRB3]: the IC50 on PSG (PSD-95) (setting [9]) turned out to be 1080 µM; at PSG G322A (PSD-95) (setting [9]) it was 342 µM; on PSG G335A (PSD-95) (setting [9]), 1130 µM; on PSG G322A G335A (PSD-95) (setting [11]) it was 534 µM. Also, the Ki at PSG (PSD-95) (setting [10]) was 459 µM; at PSG G322A (PSD-95) (setting [9]), 148 µM; at PSG G335A (PSD-95) (setting [9]), 402 µM; on PSG G322A G335A (PSD-95) (setting [12]) it was 185 µM.
With `CC(=O)N[C@@H](Cc1ccc(O)cc1)C(=O)N[C@@H](CO)C(=O)N[C@@H](CO)C(=O)N[C@H](C(=O)N[C@@H](CO)C(=O)N1CCC[C@H]1C(=O)N[C@@H](CCC(N)=O)C(=O)N[C@@H](CO)C(=O)N[C@H](C(=O)N[C@@H](CC(=O)O)C(=O)N[C@@H](CCCCN)C(=O)N[C@@H](CO)C(=O)N[C@@H](CO)C(=O)N[C@H](C(=O)N[C@H](C(=O)O)C(C)C)[C@@H](C)O)[C@@H](C)O)[C@@H](C)O` [SRGP2], the IC50 is 1450 µM at PSG (PSD-95) (setting [2]), 792 µM on PSG G322A (PSD-95) (setting [4]), 603 µM at PSG G335A (PSD-95) (setting [5]) and 435 µM at PSG G322A G335A (PSD-95) (setting [6]). Besides, the inhibition constant Ki amounted to 765 µM at PSG (PSD-95) (setting [3]), 343 µM on PSG G322A (PSD-95) (setting [4]), 215 µM at PSG G335A (PSD-95) (setting [5]) and 151 µM on PSG G322A G335A (PSD-95) (setting [7]).
`CC(=O)N[C@@H](Cc1ccc(O)cc1)C(=O)N[C@H](C(=O)N[C@@H](CCC(=O)O)C(=O)N[C@@H](CO)C(=O)N[C@@H](CCCCN)C(=O)N[C@@H](CCCCN)C(=O)N[C@@H](Cc1c[nH]cn1)C(=O)NCC(=O)N[C@@H](CCCNC(=N)N)C(=O)N[C@@H](Cc1c[nH]c2ccccc12)C(=O)N[C@@H](CCCCN)C(=O)N[C@@H](CC(C)C)C(=O)N[C@@H](Cc1c[nH]c2ccccc12)C(=O)N[C@@H](Cc1ccccc1)C(=O)N[C@@H](CC(C)C)C(=O)O)[C@@H](C)O` [INSY2]: the IC50 at PSG (PSD-95) (setting [9]) was 380 µM; on PSG G322A (PSD-95) (setting [9]), 83 µM; on PSG G335A (PSD-95) (setting [9]), 1230 µM; at PSG G322A G335A (PSD-95) (setting [11]), 980 µM. The Ki at PSG (PSD-95) (setting [10]) was determined as 161 µM; on PSG G322A (PSD-95) (setting [9]), 36 µM; at PSG G335A (PSD-95) (setting [9]), 438 µM; on PSG G322A G335A (PSD-95) (setting [12]), 339 µM.
For `CC[C@H](C)[C@H](NC(=O)[C@@H](NC(=O)[C@H](CCCCN)NC(=O)[C@H](CCCCN)NC(=O)CNC(=O)[C@H](CC(C)C)NC(=O)[C@H](CCCCN)NC(=O)[C@H](C)NC(=O)[C@H](CCSC)NC(=O)[C@H](CCCNC(=N)N)NC(=O)[C@H](CCSC)NC(=O)[C@H](CCCNC(=N)N)NC(=O)[C@H](CC(C)C)NC(=O)[C@H](C)NC(=O)[C@H](Cc1ccc(O)cc1)NC(C)=O)C(C)C)C(=O)O` [PALMD], the IC50 at PSG (PSD-95) (setting [9]) is 1160 µM; at PSG G322A (PSD-95) (setting [9]) it was 1450 µM; on PSG G335A (PSD-95) (setting [9]), 1600 µM; at PSG G322A G335A (PSD-95) (setting [11]), 1630 µM. The inhibition constant Ki stood at 493 µM on PSG (PSD-95) (setting [10]), 629 µM at PSG G322A (PSD-95) (setting [9]), 569 µM on PSG G335A (PSD-95) (setting [9]) and 564 µM at PSG G322A G335A (PSD-95) (setting [12]).
Regarding Ac-YLTGAPLATSDETSI [SEM4F], the half-maximal inhibitory concentration (IC50) on PSG (PSD-95) (setting [9]) was determined as 1740 µM; on PSG G322A (PSD-95) (setting [9]), 503 µM; at PSG G335A (PSD-95) (setting [9]) it was 764 µM; at PSG G322A G335A (PSD-95) (setting [11]), 536 µM. Also, the inhibition constant (Ki) on PSG (PSD-95) (setting [10]) amounted to 743 µM; at PSG G322A (PSD-95) (setting [9]), 218 µM; at PSG G335A (PSD-95) (setting [9]) it was 272 µM; on PSG G322A G335A (PSD-95) (setting [12]) it was 185 µM.
Turning to `CC(=O)N[C@@H](Cc1ccc(O)cc1)C(=O)N[C@@H](C)C(=O)N[C@@H](CO)C(=O)N[C@@H](CC(N)=O)C(=O)N[C@H](C(=O)N[C@@H](CC(N)=O)C(=O)N[C@H](C(=O)N[C@@H](CC(C)C)C(=O)N[C@@H](CC(N)=O)C(=O)N[C@@H](CCCNC(=N)N)C(=O)N[C@@H](CCCCN)C(=O)N[C@H](C(=O)N[C@H](C(=O)N1CCC[C@H]1C(=O)N[C@H](C(=O)O)C(C)C)[C@@H](C)O)[C@@H](C)O)[C@@H](C)O)[C@@H](C)O` [CCG8], the IC50 at PDZ3 (PSD-95) was found to be 19 µM; at PSG (PSD-95) (setting [9]) it was 116 µM; at PSG G322A (PSD-95) (setting [9]), 15 µM; on PSG G335A (PSD-95) (setting [9]), 28 µM. The inhibition constant (Ki) at PDZ3 (PSD-95) (Ki, FP displacement of 5 nM FITC-15 AA CRIPT by non-labeled acetylated peptide, room temperature, Ki from IC50, technical triplicates, PDZ3) is < 75 µM; on PSG (PSD-95) (FP displacement of 5 nM FITC-15 AA CRIPT by non-labeled acetylated peptide, room temperature, Ki from IC50, technical triplicates, PSG), < 75 µM; at PSG (PSD-95) (setting [10]), 49 µM; at PSG G322A (PSD-95) (setting [9]), 6 µM; at PSG G335A (PSD-95) (setting [9]) it was 10 µM.
Ac-YPPSSPTLSVSSTSL [KLH17]: the IC50 worked out at 1590 µM on PSG (PSD-95) (setting [9]), 1550 µM on PSG G322A (PSD-95) (setting [9]), 1430 µM at PSG G335A (PSD-95) (setting [9]) and 997 µM at PSG G322A G335A (PSD-95) (setting [11]). In addition, the Ki at PSG (PSD-95) (setting [10]) stood at 679 µM; at PSG G322A (PSD-95) (setting [9]) it was 671 µM; at PSG G335A (PSD-95) (setting [9]) it was 510 µM; on PSG G322A G335A (PSD-95) (setting [12]), 345 µM.
